Data on 2 compounds can be found in patent US10179791B2, “Spiro-cyclic amine derivatives as S1P modulators” (AbbVie B.V., priority 2010, dated 2019).

What all share (type): cell-based
The target of assay [1] is human S1P1 (Homo sapiens (Human), UniProt P21453). Kind of assay: In vitro functional activity (agonism) on human S1P1 receptors (method B), CHO-K1-human S1P1-cAMP assay. To be noted: agonism, determined using method B (cAMP HTRF with Forskolin, CHO-K1 cells); read-out: S1P1^B pEC50 (converted). As to the method:
In Vitro Functional Activity (Agonism) on Human S1P1 Receptors (Method B)
Recombinant CHO-K1 cells expressing human S1P1, grown to mid-log Phase in culture media without antibiotics, detached, centrifuged and re-suspended. For agonist testing cells are mixed with compound and Forskolin and incubated at room temperature. Cells are lyses and cAMP concentration are estimated, according to the manufacturer specification, With the HTRF kit from CIS-BIO International (cat no 62AM2PEB).
Compounds were tested at a 10 points half log concentration range duplicated in 1 experiment.
For orientation: Cyclic AMP is a second messenger, typically raised through Gs and lowered through Gi signalling.

Assay [2] concerns the target human S1P5 receptor (Homo sapiens (Human), UniProt Q9H228). Kind of assay: In vitro functional activity (agonism) on human S1P5 receptors, CHO-human-S1P5-Aequorin assay. To be noted: aequorin luminescence, CHO cells, 3 independent experiments. The text has this: In Vitro Functional Activity (Agonism) on Human S1P5 Receptors
(§1) The CHO-human-S1P5-Aeqorin assay was bought from Euroscreen, Brussels (Euroscreen, Technical dossier, Human Lysophospholid S1P5 (Edg8) receptor, DNA clone and CHO AequoScreen™ recombinant cell-line, catalog no: ES-593-A, September 2006). Human-S1P5-Aequorin cells express mitochondrial targeted apo-Aequorin. Cells have to be loaded with coelanterazine, in order to reconstitute active Aequorin. After binding of agonists to the human S1P5 receptor the intracellular calcium concentration increases and binding of calcium to the apo-Aequorin/coelenterazine complex leads to an oxidation reaction of coelenterazine, which results in the production of apo-Aequorin, coelenteramide, CO2 and light ([…]max 469 nm). This luminescent response is dependent on the agonist concentration. Luminescence is measured using the MicroBeta Jet (Perkin Elmer). Agonistic effects of compounds are expressed as pEC50. Compounds were tested at a 10 points half log concentration range, and 3 independent experiments were performed in single point's measurements.

In assay [3] the target is human S1P3 receptor (Homo sapiens (Human), UniProt Q99500). Description: In vitro functional activity (agonism) on human S1P3 receptors, CHO-human-S1P3-Aequorin assay. To be noted: aequorin luminescence, CHO K1 cells, 3 independent experiments, read-out: S1P3 pEC50 (converted).
Excerpt: In Vitro Functional Activity (Agonism) on Human S1P3 Receptors
The CHO-human-S1P3-Aeqorin assay (CHO/Gα16/AEQ/h-S1P3) was established at Solvay Pharmaceuticals. The plasmid DNA coding for the S1P3 receptor (accession number in GenBank NM_005226 was purchased from UMR cDNA resource Centre (Rolla, Mo.). The pcDNA3.1/hS1P3 construct carrying the mitochondrially targeted apo-Aeqorin and Gal6 protein was transfected in CHO K1 cell-line.
as §1, with “Human-S1P3-Aequorin” for “The CHO-human-S1P5-Aeqorin assay was bought from Euroscreen, Brussels (Euroscreen, Technical dossier, Human Lysophospholid S1P5 (Edg8) receptor, DNA clone and CHO AequoScreen™ recombinant cell-line, catalog no: ES-593-A, September 2006). Human-S1P5-Aequorin”, “S1P3” for “S1P5”

Where a name gives a salt, the structure may show the parent alone.

Chain of human S1P5 receptor (Q9H228 whole entry): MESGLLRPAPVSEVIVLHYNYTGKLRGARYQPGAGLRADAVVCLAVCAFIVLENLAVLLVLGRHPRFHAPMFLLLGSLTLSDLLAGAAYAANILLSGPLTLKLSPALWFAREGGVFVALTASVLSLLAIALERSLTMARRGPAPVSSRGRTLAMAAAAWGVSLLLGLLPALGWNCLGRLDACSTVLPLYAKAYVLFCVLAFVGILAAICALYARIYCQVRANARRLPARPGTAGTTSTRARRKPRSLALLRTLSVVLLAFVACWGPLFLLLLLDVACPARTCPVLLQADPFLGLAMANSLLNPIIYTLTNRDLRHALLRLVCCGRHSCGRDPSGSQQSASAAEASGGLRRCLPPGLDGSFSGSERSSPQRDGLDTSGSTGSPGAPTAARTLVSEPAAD
Chain of human S1P1 (P21453 whole entry): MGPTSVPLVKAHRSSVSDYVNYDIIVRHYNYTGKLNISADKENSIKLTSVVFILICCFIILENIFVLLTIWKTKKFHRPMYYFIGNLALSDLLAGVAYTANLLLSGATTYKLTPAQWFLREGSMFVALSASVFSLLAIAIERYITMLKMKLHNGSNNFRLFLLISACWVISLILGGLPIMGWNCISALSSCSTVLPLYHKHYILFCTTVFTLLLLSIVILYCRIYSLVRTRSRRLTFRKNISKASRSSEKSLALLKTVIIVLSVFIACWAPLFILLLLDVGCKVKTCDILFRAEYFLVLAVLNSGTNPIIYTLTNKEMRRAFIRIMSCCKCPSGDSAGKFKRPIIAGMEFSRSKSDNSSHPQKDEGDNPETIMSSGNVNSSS
Chain of human S1P3 receptor (Q99500 whole entry): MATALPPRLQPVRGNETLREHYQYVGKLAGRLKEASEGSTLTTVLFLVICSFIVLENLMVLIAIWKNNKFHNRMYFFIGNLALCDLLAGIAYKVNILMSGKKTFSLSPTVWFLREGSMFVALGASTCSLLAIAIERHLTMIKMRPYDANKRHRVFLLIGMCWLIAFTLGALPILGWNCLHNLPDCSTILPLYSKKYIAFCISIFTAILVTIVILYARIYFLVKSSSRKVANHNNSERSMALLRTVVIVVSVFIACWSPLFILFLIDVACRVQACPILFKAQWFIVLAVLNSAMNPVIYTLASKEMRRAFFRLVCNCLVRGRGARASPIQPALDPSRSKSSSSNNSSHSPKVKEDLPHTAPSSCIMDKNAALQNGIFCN

For the compound `CCc1ccc(Cl)c(C2CC2c2ccc3c(c2)OCC32CCN(CCC(=O)O)CC2)c1` (stereo not drawn) [Compound 182, 3-{6-[2-(2-Chloro-5-ethylphenyl)cyclopropyl]-2H-spiro[1-benzofuran-3,4′-piperidine]-1′-yl}propanoic acid hydrochloride], the results for the EC50 in assay [1] and in assay [3] were over 3.16 µM and over 10 µM, respectively. For the same compound, in assay [2], the “S1P5 pEC50” value is reported as 7.4.
Taken in the same sequence, the figures for `O=C(O)CCN1CCC2(CC1)COc1cc(Oc3c(Cl)cccc3Cl)ccc12` [Compound 248, 3-[6-(2,6-Dichlorophenoxy)-2H-spiro[1-benzofuran-3,4′-piperidine]-1′-yl]propanoic acid hydrochloride] were over 3.16 µM, over 10 µM and 6.5.
